Holding throughout (type): functional
The test system of one test is Cryptococcus neoformans. Description: Antifungal activity against Cryptococcus neoformans H99 measured after 24 to 48 hrs by CLSI method. The conditions noted are these: time 24-48 hrs.
A further test relates to Candida parapsilosis. Nature of the test: Antifungal activity against Candida parapsilosis ATCC 22019 measured after 24 to 48 hrs by CLSI method. The note with it: Lodderomyces parapsilosis, time 24-48 hrs.
The test system of the next test is Candida albicans. Description: Antifungal activity against Candida albicans SC5314 measured after 24 to 48 hrs by CLSI method. The conditions noted are these: time 24-48 hrs.
A further test has as its system Pichia kudriavzevii. Nature of the test: Antifungal activity against Candida krusei IFM56881 measured after 24 to 48 hrs by CLSI method. The note with it: time 24-48 hrs.

Structures are written as SMILES. In brackets after ≈: the same amount, converted by molar mass. Peptide text beside a SMILES is read from it.

The results in this text go back to ChEMBL document CHEMBL5113381, “Large-Scale Screening of Antifungal Peptides Based on Quantitative Structure-Activity Relationship” (2022).

One may read the MIC as the lowest concentration that inhibits growth of the organism. High values mean weaker potency, low ones greater potency. On to `CC[C@H](C)[C@H](NC(=O)[C@H](C)NC(=O)[C@H](CCCCN)NC(=O)[C@H](CCCNC(=N)N)NC(=O)[C@@H](NC(=O)[C@H](CCCNC(=N)N)NC(=O)[C@H](CCCNC(=N)N)NC(=O)CNC(=O)[C@H](Cc1ccc(O)cc1)NC(=O)[C@H](CCCNC(=N)N)NC(=O)[C@H](C)NC(=O)CNC(=O)[C@H](Cc1ccccc1)NC(=O)[C@H](CCCNC(=N)N)NC(=O)CNC(=O)[C@H](C)NC(=O)[C@H](CO)NC(=O)[C@H](CCCCN)NC(=O)[C@@H](NC(=O)[C@H](CCCCN)NC(=O)[C@@H](NC(=O)CNC(=O)[C@H](CCCCN)NC(=O)[C@H](CCCCN)NC(=O)[C@H](CCCNC(=N)N)NC(=O)[C@H](CCCCN)NC(=O)[C@H](CCC(N)=O)NC(=O)[C@H](CCCCN)NC(=O)[C@H](CCCCN)NC(=O)[C@@H](NC(=O)[C@@H](N)CCSC)[C@@H](C)O)[C@@H](C)CC)[C@@H](C)O)[C@@H](C)CC)C(=O)O` (H-MTKKQKRKKGIKTKSAGRFGARYGRRIRKAI-OH), for which the MIC against Cryptococcus neoformans is 8.84 µM (≈ 32 µg/mL); against Candida parapsilosis it was 4.42 µM (≈ 16 µg/mL); against Candida albicans it was greater than 70.7 µM; against Pichia kudriavzevii, greater than 70.7 µM.
Regarding `CSCC[C@H](NC(=O)[C@H](CCCNC(=N)N)NC(=O)[C@H](CCCCN)NC(=O)[C@H](CCCCN)NC(=O)[C@H](CCCCN)NC(=O)[C@H](Cc1c[nH]c2ccccc12)NC(=O)[C@H](CCCCN)NC(=O)[C@@H]1CCCN1C(=O)[C@H](CCCNC(=N)N)NC(=O)[C@@H](N)CCSC)C(=O)N[C@@H](CCCNC(=N)N)C(=O)N[C@@H](CCCNC(=N)N)C(=O)N[C@@H](CC(C)C)C(=O)N[C@@H](CCCCN)C(=O)N[C@@H](CCCNC(=N)N)C(=O)N[C@@H](CCCCN)C(=O)N[C@@H](CCCNC(=N)N)C(=O)N[C@@H](CCCCN)C(=O)N[C@@H](CCC(N)=O)C(=O)N[C@@H](CCCNC(=N)N)C(=O)N[C@@H](CCCNC(=N)N)C(=O)N[C@@H](C)C(=O)N[C@@H](CCCNC(=N)N)C(=O)N[C@@H](Cc1ccc(O)cc1)C(=O)N[C@@H](CCCCN)C(=O)O`, the minimal inhibitory concentration (MIC) is 2.31 µM (≈ 8.02 µg/mL) against Cryptococcus neoformans, 18.4 µM (≈ 64 µg/mL) against Candida parapsilosis, greater than 73.8 µM against Candida albicans and greater than 73.8 µM against Pichia kudriavzevii.
Regarding `CC[C@H](C)[C@H](NC(=O)[C@H](CCCCN)NC(=O)[C@@H](NC(=O)[C@@H](N)CCSC)[C@@H](C)O)C(=O)N[C@@H](CC(C)C)C(=O)N[C@@H](CC(C)C)C(=O)N[C@H](C(=O)N[C@H](C(=O)N[C@@H](CCCCN)C(=O)N[C@@H](CCCNC(=N)N)C(=O)N[C@@H](CC(C)C)C(=O)N[C@@H](CCCNC(=N)N)C(=O)N[C@H](C(=O)N[C@H](C(=O)N[C@@H](Cc1ccc(O)cc1)C(=O)N[C@H](C(=O)N[C@@H](CCCCN)C(=O)N[C@@H](CCCNC(=N)N)C(=O)N[C@@H](CS)C(=O)N[C@@H](CC(C)C)C(=O)N[C@@H](CS)C(=O)N[C@@H](Cc1ccccc1)C(=O)N[C@@H](CCCNC(=N)N)C(=O)N[C@@H](C)C(=O)O)[C@@H](C)O)C(C)C)[C@@H](C)O)C(C)C)[C@@H](C)CC` (H-MTKILLIVKRLRTVYTKRCLCFRA-OH), the MIC was found to be 5.47 µM (≈ 16 µg/mL) in the test with Cryptococcus neoformans, 43.8 µM (≈ 128 µg/mL) with Candida parapsilosis, 43.8 µM (≈ 128 µg/mL) in the test on Candida albicans and 21.9 µM (≈ 64 µg/mL) against Pichia kudriavzevii.
With `CC[C@H](C)[C@H](NC(=O)[C@H](CCCCN)NC(=O)[C@H](CC(C)C)NC(=O)[C@H](Cc1ccccc1)NC(=O)[C@H](CC(C)C)NC(=O)[C@H](Cc1ccccc1)NC(=O)[C@@H](NC(=O)[C@H](CO)NC(=O)[C@H](CO)NC(=O)[C@@H](NC(=O)[C@H](Cc1ccccc1)NC(=O)[C@@H](NC(=O)[C@H](CO)NC(=O)[C@H](Cc1ccc(O)cc1)NC(=O)[C@@H](N)CCSC)C(C)C)[C@@H](C)CC)[C@@H](C)CC)C(=O)N[C@@H](CCCNC(=N)N)C(=O)N[C@@H](Cc1ccccc1)C(=O)N[C@@H](CCCCN)C(=O)N[C@@H](CC(C)C)C(=O)N[C@@H](Cc1ccc(O)cc1)C(=O)N1CCC[C@H]1C(=O)N[C@@H](CCCNC(=N)N)C(=O)O` (H-MYSVFISSIFLFLKIRFKLYPR-OH), the MIC with Cryptococcus neoformans, against Candida parapsilosis, against Candida albicans and in the test on Pichia kudriavzevii was greater than 92.4 µM throughout.
In the case of `CC[C@H](C)[C@H](NC(=O)[C@H](Cc1cnc[nH]1)NC(=O)[C@H](C)NC(=O)[C@H](CC(C)C)NC(=O)[C@H](CC(C)C)NC(=O)[C@H](CCCCN)NC(=O)[C@H](CCSC)NC(=O)[C@@H](NC(=O)[C@@H](NC(=O)[C@H](Cc1cnc[nH]1)NC(=O)[C@H](Cc1c[nH]c2ccccc12)NC(=O)[C@@H](NC(=O)[C@H](CCCCN)NC(=O)[C@H](Cc1cnc[nH]1)NC(=O)[C@@H](NC(=O)[C@H](CCCCN)NC(=O)[C@H](Cc1cnc[nH]1)NC(=O)[C@@H](N)Cc1ccc(O)cc1)[C@@H](C)CC)C(C)C)[C@@H](C)CC)[C@@H](C)CC)C(=O)O` (H-YHKIHKVWHIIMKLLAHI-OH), the MIC with Cryptococcus neoformans came out at 7.02 µM (≈ 16 µg/mL); against Candida parapsilosis it was 14 µM (≈ 32 µg/mL); in the test on Candida albicans it was 28.1 µM (≈ 64 µg/mL); against Pichia kudriavzevii, 7.02 µM (≈ 16 µg/mL).
